{"source": "patent US20250109127A1", "about": "“METHODS OF USE OF PHENOXYPROPYLAMINE COMPOUNDS TO TREAT DEPRESSION” (Minerva Neurosciences, Inc., priority 2013, published 2025)", "tested_on": "DOPAC release in the rat prefrontal cortex", "assay": "Microdialysis: DOPAC release in prefrontal cortex after I.P. administration", "type": "in vivo", "settings": "for DOPAC release, MEAN: 3 mg/kg IP; for DOPAC release, MEAN / DOPAC (% of respective basal) MEAN: n = 8", "description": "The aim of the study was to evaluate, using microdialysis, the effects of an intraperitoneal (I.P.) administration in rats of three different doses of SON-117 on dopamine and its metabolites, serotonin and its metabolite (5-HIAA), and norepinephrine levels in prefrontal cortex.\nThirty-two adult male Wistar rats were used for the whole study (4 groups of eight animals planned for the study, Table 1).\nSurgery was performed on rats weighing about 300 g at the beginning of the experiments. Rats were anaesthetized with Ketamine (50 mg/kg) & Xylazine (15 mg/kg) by intramuscular administration. The animals were placed in a stereotaxic apparatus in the flat-skull position at a constant setting of −3.3 mm between ear bars and the incisor bar. The animals were treated with a local anesthesic (xylocaine 1%, Astra Zeneca) and an analgesic (Temgesic, from Schering Plough, 0.05 mg/kg, s.c.). A rostrocaudal midline incision was made with a lancet to expose the dorsal skull surface. The “stereotaxic zero” was defined by the Bregma in accordance with Paxinos and Watson's atlas (1986). A hole was drilled in the skull with a drill and the meninges were pierced with a sterile needle to implant a CMA12 guide cannula which later received the dialysis probe.\nCoordinates used for implanting guide cannula in prefrontal cortex from Bregma were anteroposterior 3.7 mm, mediolateral 0.8 mm, and dorsoventral −2 mm (top of the probe was at −5 mm). The guide cannula was fixed to the skull with two stainless steel screws (1.88 mm outside diameter) anchored. An application of dental cement was added. A plastic collar allowed each animal to be tethered to a Swivel assembly of the CMA 120 awake animal system. Following surgery, rats were kept in individual cages and allowed to recover for a minimum of 3-5 days before the experimentation. The rats were handled and put in plastic bowl for 10 min at least every day to habituate the animals to their new environment for the dialysis. An I.P. administration with saline was also performed every day.\nDialysis probes (CMA12/3 mm, membrane, 20 kD cut-off, Carnegie Medicine, Stockholm, Sweden), were carefully washed before inserting into the guide cannula. The wash was performed with the artificial cerebrospinal fluid (aCSF) medium (NaCl 147 mM, KCl 2.7 mM, CaCl2 1.2 mM, MgCl2 0.85 mM) at room temperature. The dialysis system was then equilibrated at 20° C. at a perfusion rate of 1 μl/min with a Carnegie pump (CMA100). All catheters (FEP tubing, internal volume of 1.2 μl/10 cm, and tubing adaptors) used for microdialysis were treated in the same conditions.\nThe probes duly prepared were inserted into the guide cannula and the CMA120 Swivel assembly secured to the animal using a plastic collar. Flow through the dialysis probe with aCSF was maintained at a rate of 1 μl/min during the whole experimentation. The first four fractions (corresponding to 2 hours) were discarded to avoid the effects of parenchymal disturbance and to ensure that an approximate steady-state level was reached. Fractions were then collected over a period of 8.5 h during which time the animals remained quiet. The dialysates were automatically collected with an autosampler (microfraction collector CMA 140, Carnegie Medicin) and stored at −80° C. until analysis. […] Perfusion was then maintained for 7 hours with aCSF. The dialysates (30 μl) were collected into 300 μl vials, transferred into dry ice and then kept frozen (−80° C.) until analysis. Frozen samples were shipped to a partner for analysis. At the end of the microdialysis study, a PBS with colored ink was perfused through the probe in order to visualize the dialyzed area.\nCatecholamine assay: Concentrations of dopamine, DOPAC, HVA, 5-HIAA, 5-HT, and norepinephrin were determined for each sample by HPLC coupled with electrochemical detection.", "note": "Structures can show the parent of a compound that is named as a salt."}
{"smiles": "Cc1nnc(-c2cc3c(OC[C@@H](O)CN4CCC(c5ccc(Cl)c(Cl)c5)CC4)cccc3o2)o1", "note": "[SON-117, (S)-1-(4-(3,4-dichlorophenyl)piperidino)-3-(2-(5-methyl-1,3,4-oxadiazol-2-yl)benzo(b)furan-4-yloxy)-2-propanol hydrochloride]", "values": [{"measurement": "DOPAC release, MEAN", "setting": "T-1 h 30-T-1 h (before administration)", "result": "101.39 % of respective basal"}, {"measurement": "DOPAC release, MEAN", "setting": "T-1 h-T-30 min (before administration)", "result": "103.75 % of respective basal"}, {"measurement": "DOPAC levels, change (not statistically significant)", "setting": "SON-117 0.1 mg/kg I.P., from 1.5 h to 2.5 h and from 4.5 h to 7 h", "result": "tended to induce a slight increase"}, {"measurement": "release of DOPAC, trend", "setting": "SON-117 0.1 mg/kg, at 2 h and from 4.5 h to 7 h", "result": "trend for an increased release"}, {"measurement": "DOPAC dialysate levels vs mean pre-administration value", "setting": "SON-117 0.3 mg/kg IP", "result": "no statistically significant differences"}, {"measurement": "DOPAC dialysate levels vs mean pre-administration value", "setting": "SON-117 3 mg/kg IP", "result": "no statistically significant differences"}, {"measurement": "DOPAC, difference to the citalopram group (two-way ANOVA)", "setting": "SON-117 at the three doses tested, in function of time", "result": "no significant differences"}, {"measurement": "DOPAC (% of respective basal) MEAN", "setting": "SON-117 group 0.1 mg/kg I.P., T0-T30 min", "result": "81.81 % of respective basal"}, {"measurement": "DOPAC (% of respective basal) MEAN", "setting": "SON-117 group 0.1 mg/kg I.P., T30-T1 h", "result": "104.52 % of respective basal"}, {"measurement": "DOPAC (% of respective basal) MEAN", "setting": "SON-117 group 0.1 mg/kg I.P., T1 h 30-T2 h", "result": "144.57 % of respective basal"}, {"measurement": "DOPAC (% of respective basal) MEAN", "setting": "SON-117 group 0.1 mg/kg I.P., T1 h-T1 h 30", "result": "112.3 % of respective basal"}, {"measurement": "DOPAC (% of respective basal) MEAN", "setting": "SON-117 group 0.1 mg/kg I.P., T2 h 30-T3 h", "result": "94.20 % of respective basal"}, {"measurement": "DOPAC (% of respective basal) MEAN", "setting": "SON-117 group 0.1 mg/kg I.P., T2 h-T2 h 30", "result": "102.15 % of respective basal"}, {"measurement": "DOPAC (% of respective basal) MEAN", "setting": "SON-117 group 0.1 mg/kg I.P., T3 h 30-T4 h", "result": "96.09 % of respective basal"}, {"measurement": "DOPAC (% of respective basal) MEAN", "setting": "SON-117 group 0.1 mg/kg I.P., T3 h-T3 h 30", "result": "90.94 % of respective basal"}, {"measurement": "DOPAC (% of respective basal) MEAN", "setting": "SON-117 group 0.1 mg/kg I.P., T4 h 30-T5 h", "result": "120.32 % of respective basal"}, {"measurement": "DOPAC (% of respective basal) MEAN", "setting": "SON-117 group 0.1 mg/kg I.P., T4 h-T4 h 30", "result": "142.52 % of respective basal"}, {"measurement": "DOPAC (% of respective basal) MEAN", "setting": "SON-117 group 0.1 mg/kg I.P., T5 h 30-T6 h", "result": "122.76 % of respective basal"}, {"measurement": "DOPAC (% of respective basal) MEAN", "setting": "SON-117 group 0.1 mg/kg I.P., T5 h-T5 h 30", "result": "129.53 % of respective basal"}, {"measurement": "DOPAC (% of respective basal) MEAN", "setting": "SON-117 group 0.1 mg/kg I.P., T6 h 30-T7 h", "result": "137.94 % of respective basal"}, {"measurement": "DOPAC (% of respective basal) MEAN", "setting": "SON-117 group 0.1 mg/kg I.P., T6 h-T6 h 30", "result": "127.81 % of respective basal"}, {"measurement": "DOPAC (% of respective basal) MEAN", "setting": "SON-117 group 0.1 mg/kg I.P., T-30 min-T0 (before administration)", "result": "90.82 % of respective basal"}, {"measurement": "DOPAC (% of respective basal) MEAN", "setting": "SON-117 group 0.1 mg/kg I.P., T-1 h 30-T-1 h (before administration)", "result": "109.18 % of respective basal"}, {"measurement": "DOPAC (% of respective basal) MEAN", "setting": "SON-117 group 0.1 mg/kg I.P., T-1 h-T-30 min (before administration)", "result": "100.52 % of respective basal"}, {"measurement": "DOPAC (% of respective basal) MEAN", "setting": "SON-117 group 0.3 mg/kg I.P., T0-T30 min", "result": "86.10 % of respective basal"}, {"measurement": "DOPAC (% of respective basal) MEAN", "setting": "SON-117 group 0.3 mg/kg I.P., T30-T1 h", "result": "84.32 % of respective basal"}, {"measurement": "DOPAC (% of respective basal) MEAN", "setting": "SON-117 group 0.3 mg/kg I.P., T1 h 30-T2 h", "result": "102.17 % of respective basal"}, {"measurement": "DOPAC (% of respective basal) MEAN", "setting": "SON-117 group 0.3 mg/kg I.P., T1 h-T1 h 30", "result": "93.91 % of respective basal"}, {"measurement": "DOPAC (% of respective basal) MEAN", "setting": "SON-117 group 0.3 mg/kg I.P., T2 h 30-T3 h", "result": "83.76 % of respective basal"}, {"measurement": "DOPAC (% of respective basal) MEAN", "setting": "SON-117 group 0.3 mg/kg I.P., T2 h-T2 h 30", "result": "81.99 % of respective basal"}, {"measurement": "DOPAC (% of respective basal) MEAN", "setting": "SON-117 group 0.3 mg/kg I.P., T3 h 30-T4 h", "result": "94.46 % of respective basal"}, {"measurement": "DOPAC (% of respective basal) MEAN", "setting": "SON-117 group 0.3 mg/kg I.P., T3 h-T3 h 30", "result": "83.66 % of respective basal"}, {"measurement": "DOPAC (% of respective basal) MEAN", "setting": "SON-117 group 0.3 mg/kg I.P., T4 h 30-T5 h", "result": "107.30 % of respective basal"}, {"measurement": "DOPAC (% of respective basal) MEAN", "setting": "SON-117 group 0.3 mg/kg I.P., T4 h-T4 h 30", "result": "94.25 % of respective basal"}, {"measurement": "DOPAC (% of respective basal) MEAN", "setting": "SON-117 group 0.3 mg/kg I.P., T5 h 30-T6 h", "result": "88.68 % of respective basal"}, {"measurement": "DOPAC (% of respective basal) MEAN", "setting": "SON-117 group 0.3 mg/kg I.P., T5 h-T5 h 30", "result": "79.90 % of respective basal"}, {"measurement": "DOPAC (% of respective basal) MEAN", "setting": "SON-117 group 0.3 mg/kg I.P., T6 h 30-T7 h", "result": "96.87 % of respective basal"}, {"measurement": "DOPAC (% of respective basal) MEAN", "setting": "SON-117 group 0.3 mg/kg I.P., T6 h-T6 h 30", "result": "97.32 % of respective basal"}, {"measurement": "DOPAC (% of respective basal) MEAN", "setting": "SON-117 group 0.3 mg/kg I.P., T-30 min-T0 (before administration)", "result": "92.84 % of respective basal"}, {"measurement": "DOPAC (% of respective basal) MEAN", "setting": "SON-117 group 0.3 mg/kg I.P., T-1 h 30-T-1 h (before administration)", "result": "104.24 % of respective basal"}, {"measurement": "DOPAC (% of respective basal) MEAN", "setting": "SON-117 group 0.3 mg/kg I.P., T-1 h-T-30 min (before administration)", "result": "102.91 % of respective basal"}]}
